This assay relates to rabbit skeletal myofibrils (approximately 90% fast fibers). Description: Activation of fast skeletal myofibrils (PUMA coupled-enzyme ATPase assay, AC1.4). Conditions: concentration at which the compound increased enzymatic activity by 40%, calcium at pCa25. The format is biochemical. On the procedure:
Rabbit skeletal myofibrils were prepared based upon the method of Herrmann et al. (Biochem. 32(28):7255-7263(1993). Myofibrils were prepared from rabbit psoas muscle purchased from Pel-Freez Biologicals (Arkansas) within 2 days of ordering, stored on ice. Minced muscle was homogenized in 10 volumes of ice-cold “standard” buffer (50 mM Tris, pH 7.4, 0.1 M potassium acetate, 5 mM KCl, 2 mM DTT, 0.2 mM PMSF, 10 μM leupeptin, 5 μM pepstatin, and 0.5 mM sodium azide) containing 5 mM EDTA and 0.5% Triton X-100 using an Omni-Macro homogenizer. Myofibrils were recovered by low speed centrifugation (3000 rpm for 10 minutes) and washed 2 times in the Triton X-100 containing buffer to ensure removal of cellular membrane. Following the Triton washes, myofibrils were washed 3 times in “standard” buffer containing 2 mM magnesium acetate. A final wash in assay buffer (12 mM PIPES, pH 6.8, 60 mM KCl, 1 mM DTT) was performed and brought to 10% sucrose for flash freezing in liquid nitrogen and storage at −80° C.
Fast fiber activators were identified by measuring the enzymatic activity of muscle myofibril preparations using the proprietary PUMA™ (see, e.g., U.S. Pat. Nos. 6,410,254, 6,743,599, 7,202,051, and 7,378,254) assay system. Myofibril preparations consisted of rabbit skeletal muscle (approximately 90% fast fibers) that had been mechanically homogenized and washed with a detergent (triton X-100) to remove cellular membranes. This preparation retained all of the sarcomeric components in a native conformation and the enzymatic activity was still regulated by calcium. Compounds were tested using a myofibril suspension and a level of calcium sufficient to increase enzymatic activity of the myofibrils to 25% of their maximal rate (termed pCa25). Enzymatic activity was tracked via a pyruvate kinase and lactate dehydrogenase-coupled enzyme system. This assay regenerates myosin-produced ADP into ATP by oxidizing NADH, producing an absorbance change at 340 nm. The buffering system was 12 mM Pipes, 2 mM MgCl2, 1 mM DTT at pH 6.8 (PM12 buffer).
Using procedures similar to those described herein, utilizing reagents and intermediates commercially available (e.g., Sigma-Aldrich) or readily synthesized by one of skill in the art, the compounds in Table 2, Table 3, Table 4 and Table 5 were synthesized, characterized and tested. AC1.4 values were determined according to the procedure described in Example 6, and the reported median AC1.4 values are as follows: A=<1 uM; B=1-10 uM; C=10-20 uM; D=>20 uM.

In the case of `NC(=O)c1ccc2sc(NC[C@]3(c4ncccc4F)C[C@H](F)C3)nc2c1` [2-((3-fluoro-1-(3-fluoropyridin-2-yl)cyclobutyl)methylamino)benzo[d] thiazole-5-carboxamide], where the note is “Table 4”, the “Mean AC1.4” value is reported as “C (C=10-20 uM)”.
Take `NC(=O)c1cccc2nc(NC[C@]3(c4ncccc4F)C[C@H](F)C3)sc12` [2-((3-fluoro-1-(3-fluoropyridin-2-yl)cyclobutyl)methylamino)benzo[d] thiazole-7-carboxamide]: the “Mean AC1.4” value (Table 4) is on record as “D (D=>20 uM)”.
Turning to `CC(C)(CNc1nc(CCCNC(=O)CN)ns1)c1ccc(F)cc1` [2-amino-N-[3-(5-{[2-(4-fluorophenyl)-2-methylpropyl]amino}(1,2,4-thiadiazol-3-yl))propyl]acetamide], for the setting “Table 2”, the “Mean AC1.4” value is on record as “B (B=1-10 uM)”.
In the case of `CC(C)(CNc1nc(CNC(=O)CN)ns1)c1ccc(F)cc1` [2-amino-N-[(5-{[2-(4-fluorophenyl)-2-methylpropyl]amino}(1,2,4-thiadiazol-3-yl))methyl]acetamide], the “Mean AC1.4” value (Table 2) is recorded as “C (C=10-20 uM)”.
For the compound `N#Cc1ccc2nc(N)sc2c1` [2-aminobenzo[d]thiazole-6-carbonitrile], where the note is “Table 4”, the “Mean AC1.4” value is listed as “D (D=>20 uM)”.
As to `CC(C)(CNc1nc(-c2ccc(C(N)=O)c(F)c2)ns1)c1ccc(F)cc1` [2-fluoro-4-(5-{[2-(4-fluorophenyl)-2-methylpropyl]amino}(1,2,4-thiadiazol-3-yl))benzamide], the “Mean AC1.4” value (Table 2) is listed as “A (A=<1 uM)”.
Regarding `CC(C)(CNc1nc(-c2ccc(C#N)c(F)c2)ns1)c1ccc(F)cc1` [2-fluoro-4-(5-{[2-(4-fluorophenyl)-2-methylpropyl]amino}(1,2,4-thiadiazol-3-yl))benzenecarbonitrile], the “Mean AC1.4” value (Table 2) is on record as “B (B=1-10 uM)”.
With `CC(C)(CNc1nc(-c2ccc(F)c(C(N)=O)c2)ns1)c1ccc(F)cc1` [2-fluoro-5-(5-{[2-(4-fluorophenyl)-2-methylpropyl]amino}(1,2,4-thiadiazol-3-yl))benzamide], the “Mean AC1.4” value (Table 2) is given as “A (A=<1 uM)”.
As for `CC(C)(CNc1nc(-c2ccc(F)c(C#N)c2)ns1)c1ccc(F)cc1` [2-fluoro-5-(5-{[2-(4-fluorophenyl)-2-methylpropyl]amino}(1,2,4-thiadiazol-3-yl))benzenecarbonitrile], the “Mean AC1.4” value (Table 2) is “B (B=1-10 uM)”.
Turning to `CN(CCO)Cc1nsc(NCC(C)(C)c2ccc(F)cc2)n1` [2-{[(5-{[2-(4-fluorophenyl)-2-methylpropyl]amino}(1,2,4-thiadiazol-3-yl))methyl]methylamino}ethan-1-ol], for the setting “Table 2”, the “Mean AC1.4” value was “D (D=>20 uM)”.
Same read-out and setting: for `CC(C)(CNc1nc(CNCCO)ns1)c1ccc(F)cc1` [2-{[(5-{[2-(4-fluorophenyl)-2-methylpropyl]amino}-1,2,4-thiadiazol-3-yl)methyl]amino}ethan-1-ol] the value was “D (D=>20 uM)”; for `NC(=O)c1cccc(-c2nc(NCCCc3ccccc3)ns2)c1` [3-(3-(3-phenylpropylamino)-1,2,4-thiadiazol-5-yl)benzamide], “D (D=>20 uM)”; for `NC(=O)c1cccc(-c2nc(NCCc3ccccc3)ns2)c1` [3-(3-(phenethylamino)-1,2,4-thiadiazol-5-yl)benzamide], “D (D=>20 uM)”.
Take `CC(C)(CNc1nsc(-c2cccc(C(N)=O)c2)n1)c1ccc(F)cc1` [3-(3-{[2-(4-Fluorophenyl)-2-methylpropyl]amino}-1,2,4-thiadiazol-5-yl)benzamide]: for the setting “Table 2”, the “Mean AC1.4” value was “B (B=1-10 uM)”.
For the compound `NC(=O)c1cccc(-c2nnc(NCC3(c4ncccc4F)CCC3)s2)c1` [3-(5-((1-(3-fluoropyridin-2-yl)cyclobutyl)methylamino)-1,3,4-thiadiazol-2-yl)benzamide], the “Mean AC1.4” value (Table 3) is reported as “A (A=<1 uM)”.
Regarding `N#Cc1cccc(-c2nnc(NCC3(c4ncccc4F)CCC3)s2)c1` [3-(5-((1-(3-fluoropyridin-2-yl)cyclobutyl)methylamino)-1,3,4-thiadiazol-2-yl)benzonitrile], the “Mean AC1.4” value (Table 3) is given as “B (B=1-10 uM)”.
Turning to `Cc1ccc(C(N)=O)cc1-c1nnc(NC[C@]2(c3ncccc3F)C[C@H](F)C2)s1` [3-(5-((3-fluoro-1-(3-fluoropyridin-2-yl)cyclobutyl)methylamino)-1,3,4-thiadiazol-2-yl)-4-methylbenzamide], the “Mean AC1.4” value (Table 3) is reported as “A (A=<1 uM)”.
In the case of `Cc1ccc(C#N)cc1-c1nnc(NC[C@]2(c3ncccc3F)C[C@H](F)C2)s1` [3-(5-((3-fluoro-1-(3-fluoropyridin-2-yl)cyclobutyl)methylamino)-1,3,4-thiadiazol-2-yl)-4-methylbenzonitrile], the “Mean AC1.4” value (Table 3) is “B (B=1-10 uM)”.
Still for that read-out and setting: with `N#Cc1cccc(-c2nnc(NC[C@]3(c4ncccc4F)C[C@@H](F)C3)s2)c1` [3-(5-(((cis)3-fluoro-1-(3-fluoropyridin-2-yl)cyclobutyl)methylamino)-1,3,4-thiadiazol-2-yl)benzonitrile] the entry was “B (B=1-10 uM)”.
Turning to `NC(=O)c1cccc(-c2nnc(NC[C@]3(c4ncccc4F)C[C@@H](F)C3)s2)c1` [3-(5-(((cis)-3-fluoro-1-(3-fluoropyridin-2-yl)cyclobutyl)methylamino)-1,3,4-thiadiazol-2-yl)benzamide], where the note is “Table 3”, the “Mean AC1.4” value is listed as “B (B=1-10 uM)”.
Regarding `N#Cc1cccc(-c2nnc(NC[C@]3(c4ncccc4F)C[C@H](F)C3)s2)c1` [3-(5-(((trans)3-fluoro-1-(3-fluoropyridin-2-yl)cyclobutyl)methylamino)-1,3,4-thiadiazol-2-yl)benzonitrile], the “Mean AC1.4” value (Table 3) was “B (B=1-10 uM)”.
Turning to `NC(=O)c1cccc(-c2nnc(NC[C@]3(c4ncccc4F)C[C@H](F)C3)s2)c1` [3-(5-(((trans)-3-fluoro-1-(3-fluoropyridin-2-yl)cyclobutyl)methylamino)-1,3,4-thiadiazol-2-yl)benzamide], the “Mean AC1.4” value (Table 3) is “B (B=1-10 uM)”.
Take `CC(Nc1nc(-c2cccc(C(N)=O)c2)ns1)C(=O)c1ccc(F)cc1` (stereo not drawn) [3-(5-{[2-(4-fluorophenyl)-1-methyl-2-oxoethyl]amino}-1,2,4-thiadiazol-3-yl)benzamide]: the “Mean AC1.4” value (Table 2) is listed as “C (C=10-20 uM)”.
The same measure, in the same setting: with `NC(=O)c1cccc(-c2nsc(NCC(O)c3ccc(F)cc3)n2)c1` (stereo not drawn) [3-(5-{[2-(4-fluorophenyl)-2-hydroxyethyl]amino}-1,2,4-thiadiazol-3-yl)benzamide] the entry was “D (D=>20 uM)”.
Take `CC(C)(CNc1nc(CCC(=O)N2CCCC(O)C2)ns1)c1ccc(F)cc1` (stereo not drawn) [3-(5-{[2-(4-fluorophenyl)-2-methylpropyl]amino}(1,2,4-thiadiazol-3-yl))-1-(3-hydroxypiperidyl)propan-1-one]: the “Mean AC1.4” value (Table 2) is recorded as “D (D=>20 uM)”.
Take `CC(C)(CNc1nc(CCC(=O)N2CCC(O)CC2)ns1)c1ccc(F)cc1` [3-(5-{[2-(4-fluorophenyl)-2-methylpropyl]amino}(1,2,4-thiadiazol-3-yl))-1-(4-hydroxypiperidyl)propan-1-one]: the “Mean AC1.4” value (Table 2) is “D (D=>20 uM)”.
Turning to `CC(C)(CNc1nc(CCC(=O)N2CCCC2)ns1)c1ccc(F)cc1` [3-(5-{[2-(4-fluorophenyl)-2-methylpropyl]amino}(1,2,4-thiadiazol-3-yl))-1-pyrrolidinylpropan-1-one], the “Mean AC1.4” value (Table 2) is given as “C (C=10-20 uM)”.
Take `CC(C)(CNc1nc(CCC(=O)NCCO)ns1)c1ccc(F)cc1` [3-(5-{[2-(4-fluorophenyl)-2-methylpropyl]amino}(1,2,4-thiadiazol-3-yl))-N-(2-hydroxyethyl)propanamide]: where the note is “Table 2”, the “Mean AC1.4” value is given as “C (C=10-20 uM)”.
On to `CC(C)(CNc1nc(-c2cccc(C(N)=O)c2)ns1)c1ccc(F)cc1` [3-(5-{[2-(4-fluorophenyl)-2-methylpropyl]amino}-1,2,4-thiadiazol-3-yl)benzamide], for which, for the setting “Table 2”, the “Mean AC1.4” value is recorded as “A (A=<1 uM)”.
On to `CC(C)(CNc1nc(-c2cccc(C#N)c2)ns1)c1ccc(F)cc1` [3-(5-{[2-(4-fluorophenyl)-2-methylpropyl]amino}-1,2,4-thiadiazol-3-yl)benzenecarbonitrile], for which the “Mean AC1.4” value (Table 2) is “B (B=1-10 uM)”.
As for `CC(C)(CNc1nc(-c2cccc(O)c2)ns1)c1ccc(F)cc1` [3-(5-{[2-(4-fluorophenyl)-2-methylpropyl]amino}-1,2,4-thiadiazol-3-yl)phenol], the “Mean AC1.4” value (Table 2) is reported as “A (A=<1 uM)”.
Take `CC(C)(CNc1nc(CCC(N)=O)ns1)c1ccc(F)cc1` [3-(5-{[2-(4-fluorophenyl)-2-methylpropyl]amino}-1,2,4-thiadiazol-3-yl)propanamide]: the “Mean AC1.4” value (Table 2) was “C (C=10-20 uM)”.
In the case of `CC(C)(CNc1nc(CC(O)CO)ns1)c1ccc(F)cc1` (stereo not drawn) [3-(5-{[2-(4-fluorophenyl)-2-methylpropyl]amino}-1,2,4-thiadiazol-3-yl)propane-1,2-diol], for the setting “Table 2”, the “Mean AC1.4” value is “B (B=1-10 uM)”.

The record behind these values is patent publication US9278962B2 (Cytokinetics, Inc., priority 2011, dated 2016).
